{
  "source": "patent US11013752B2",
  "about": "“Combination therapies for inner ear sensory hair cell regeneration/replacement” (Hough Ear Institute, priority 2016, dated 2021)",
  "key": {"[1]": {"tested_on": "neonatal murine utricular maculae", "assay": "BIO, siHes1 and GSI in neomycin-damaged utricle cultures", "format": "cell-based, CD1 mice", "settings": "NEO-ablated utricles; BIO 2.5 μM, 20 nM Hes1 siRNA, GSI 5 μM", "method": "To assess whether BIO can enhance the therapeutic efficacy of Hes1 siRNA in regenerating HCs following a toxic insult, neonatal murine utricular tissues were exposed to neomycin (NEO) and then either left untreated or were treated with one or both of the therapeutic agents. After a total of 8 days in vitro, tissues were fixed and labeled with the HC marker, Myo7a. ###, p<0.001 difference in Myo7a-postive cells relative to untreated controls. *, **, and ***, p<0.05, 0.01, and 0.001, respectively, with respect to significant differences in the number of Myo7a-postive cells between treatment groups.\nOrganotypic cultures from murine utricular maculae (balance organ sensory epithelia) were cultured and then harvested on postnatal day 3 (P3) from CD1 mice. These explants were then cultured in appropriate media for twenty-four hours. […] All cultures were then maintained in media without either of the test agents for a final 24 h, after which tissues were fixed in 4% paraformaldehyde solution and subjected to immunolabeling with an antibody against the hair cell marker, myosin VIIa (Myo7a), and an appropriate secondary antibody for subsequent immunofluorescence-mediated quantification of HCs along the length of the cochlear spiral (FIGS. 14-17)."}, "[2]": {"tested_on": "Madin-Darby Canine Kidney (MDCK) cells", "format": "cell-based", "method": "FIG. 19 depicts representative images of GSK3I-mediated proliferation in serum-starved MDCK cells. Cells were initially cultured in the presence of 10% fetal bovine serum (FBS) and then switched to serum-free media for 24 hours prior to the addition of 0.2% serum-containing media which included GSK3Is at the indicated concentrations in the presence of 10 μM EdU. Cells were cultured an additional 48 h prior to fixation and visualization of EdU-positive nuclei (green) via conjugation of AlexaFluor488 azide in a copper-catalyzed cycloaddition (“Click” reaction, Click-iT Edu, Life Technologies). Total nuclei were stained with DAPI (blue). NC, normal control or untreated cells cultured in the presence of 10% FBS throughout the experimental time course.\nEdU-positive nuclei from imaged fields of MDCK cells cultured as described in FIG. 13 were quantified using ImageJ software (NIH) and graphed as the averaged percentile of the number of EdU-positive cells relative to the total number of DAPI-stained nuclei in each field. A minimum of four fields of cells for each experimental condition were included in this analysis. (* and ***, p<0.05 and 0.001, respectively, for statistically significant increases in EdU-positive nuclei relative to untreated, serum-starved controls).\nTideglusib was procured from Cayman Chemical Company and performed a dose curve analysis under serum starvation conditions with Madin-Darby Canine Kidney (MDCK) cells in parallel with a series of commercially-available GSK3 inhibitors to ascertain its relative proliferative potential under mitotically-suppressed conditions in this well-established mammalian epithelial cell line. In these experiments, MDCK cells were cultured under serum starvation conditions for 24 hours prior to culturing cells for 48 hours in the presence of GSK3 inhibitors and 10 μM EdU (5-ethynyl-2′-deoxyuridine), a nucleoside analog that permanently marks cells that have undergone DNA replication."}, "[3]": {"tested_on": "organotypic cultures of murine OCs", "assay": "Hair cell counts in neomycin-damaged OC cultures treated with TIDE and/or siHES1 lipofection complexes", "format": "cell-based", "method": "FIG. 22 depicts hair cells (Myo7a+ cells) quantified from the mid-apical and middle regions of organotypic cultures of murine OCs following a 24 h exposure to neomycin (0.7 mM) and subsequent recovery in the presence or absence of the GSK3 inhibitor Tideglusib (TIDE) and/or siHES1 (20 nM) lipofection complexes (JetSI, Polyplus).\nFIG. 23 depicts hair cells (Myo7a+ cells) quantified from the mid-apical and middle regions of organotypic cultures of murine OCs following a 24 h exposure to neomycin (0.7 mM) and subsequent recovery in the presence or absence of the GSK3 inhibitor Tideglusib (TIDE) and/or siHES1 (20 nM) lipofection complexes (JetSI, Polyplus).\nFIG. 25 depicts hair cells (Myo7a+ cells) quantified from the mid-apical, middle, and mid-basal regions of organotypic cultures of murine OCs following a 24 h exposure to neomycin (0.7 mM) and subsequent recovery in the presence or absence of the GSK3 inhibitor Tideglusib (TIDE) and/or siHES1 (20 nM) lipofection complexes (JetSI, Polyplus). One set of NEO-ablated OCs were treated with TIDE then siHes1 in the presence of 2 ng/mL FGF-2 as a media supplement with the aim of potentially enhancing the effects of Tideglusib.\nThe protocol described above for BIO is used, substituting the addition of BIO for 10.0 μM Tideglusib (TIDE). A third treatment group is added, where Tideglusib is included in the culture medium after siHes1, parallel to the other protocols: on P4 or P5 (depending on whether there was an ototoxic insult to simulate hair cell loss) the control media is added with or without the inclusion of 10.0 μM TIDE; on P7 siHes1 is added in the presence of absence of TIDE; and on P9 10.0 μM Tideglusib is included in the media for a subset of cultures. On P11, all media is replaced with fresh media without any therapeutics. On P12, the tissues are fixed for immunolabeling. An example of comparative analyses from this treatment paradigm, following an exposure to the ototoxic aminoglycoside, NEO, is depicted in FIG. 22.\nThis experimental paradigm was again repeated adding additional treatment groups where FGF-2 was optionally included in the culture medium at 2 ng/mL at P5, P7, and P9 for a subset of cultures."}, "[4]": {"tested_on": "Hes1 transcript in IMO-2B1 murine inner ear cell line", "assay": "Hes1 knockdown efficiency by RT-qPCR, transfected siHES1 molecules", "format": "cell-based", "settings": "IMO-2B1, RNAiMAX, 48 hours after transfection", "from_the_text": "FIG. 27 depicts reverse transcription-quantitative polymerase chain reaction (RT-qPCR) results from comparative dose curve analyses of Hes1 knockdown efficiency relative to mock-treated controls in a murine inner ear cell line (IMO-2B1), using two distinct siHES1 molecules with conserved target sites among mammalian Hes1 transcripts. SiRNA molecules were transfected into sub-confluent wells of IMO-2B1, using a commercial transfection agent (RNAiMAX, ThermoFisher Sci.). Forty-eight hours after transfection, total RNA was isolated and subjected to RT-qPCR analyses, using primers against Hes1 and the house keeping gene GAPDH. Relative Hes1 levels were determined by the 2^−ΔΔCT method (See Livak and Schmittgen (2001) Methods 25(4):402-408, incorporated by reference in its entirety). The apparent potency of molecule #7 for depleting Hes1 transcript levels was considerably greater than that of molecule #1, as optimal knockdown using molecule #7 was observed using as little as 2 nM siRNA (relative to ˜20 nM required for molecule #1)."}, "[5]": {"settings": "neomycin 0.7 mM 24 h, 10.0 μM TIDE, siHES1 20 nM lipofection complexes (FIG. 22)"}},
  "note": "Entries after “also recorded” stand apart in the source; their conditions may differ.",
  "data": [
    {"compound": "O=C1Nc2cc(Br)ccc2/C1=C1/Nc2ccccc2/C1=N\\O", "note": "[BIO, 6-bromoindirubin-3′-oxime]", "values": [
      {"measurement": "HC numbers (Myo7a-positive cells) in striolar/extrastriolar region", "setting": "[1]", "result": "increased HC numbers within the striolar region"},
      {"measurement": "proliferative response (EdU-positive nuclei)", "setting": "[2]; serum-starved MDCK, 48 h, across dose range tested (up to 10 μM)", "result": "reduced numbers of EdU-positive nuclie"}
    ]},
    {"compound": "Cc1c[nH]c(-c2cnc(NCCNc3ccc(C#N)cn3)nc2-c2ccc(Cl)cc2Cl)n1", "note": "[CHIR-99021]", "values": [
      {"measurement": "number of EdU-positive nuclei", "setting": "[2]; 10 μM, relative to untreated serum-starved cells", "result": "statistically insignificant relative to untreated, serum-starved cells"},
      {"measurement": "mitotically-active cells (EdU-positive nuclei)", "setting": "[2]; low-dose (0.1 μM), serum starvation", "result": "robust, statistically-significant increase in mitotically-active cells"}
    ]},
    {"compound": "C[C@H](NC(=O)Cc1cc(F)cc(F)c1)C(=O)N[C@@H]1C(=O)N(C)c2ccccc2-c2ccccc21", "note": "[GSI, deshydroxy LY 411575]", "values": [
      {"measurement": "HC numbers (Myo7a-positive cells) in striolar/extrastriolar region", "setting": "[1]", "result": "increased HC numbers within the striolar region"}
    ]},
    {"compound": "[Cl-].[Li+]", "note": "[LiC1, lithium chloride]", "values": [
      {"measurement": "EdU-positive cells", "setting": "[2]; 10 mM, relative to identical dose of sodium chloride", "result": "increased numbers of EdU-positive cells"}
    ]},
    {"compound": "NC[C@@H]1O[C@H](O[C@H]2[C@@H](O)[C@H](O[C@@H]3[C@@H](O)[C@H](N)C[C@H](N)[C@H]3O[C@H]3O[C@H](CN)[C@@H](O)[C@H](O)[C@H]3N)O[C@@H]2CO)[C@H](N)[C@@H](O)[C@@H]1O", "note": "[NEO alone, neomycin]", "values": [
      {"measurement": "Hair Cell Counts ± SEM, Mid-apical turn", "setting": "[3]; [5]", "result": "5.1 ± 1.1"},
      {"measurement": "Hair Cell Counts ± SEM, Middle Turn", "setting": "[3]; [5]", "result": "2.5 ± 0.8"}
    ]},
    {"compound": "FGF-2: basic fibroblast growth factor used as media supplement", "values": [
      {"measurement": "effect of FGF-2 media supplement on HC regeneration", "setting": "[3]; 2 ng/mL FGF-2, NEO-ablated OCs, with or without TIDE then siHes1", "result": "did not elicit a therapeutic response on its own; also recorded: potentiated the therapeutic effects of TIDE/siHES1 treatment through the mid-basal turn of the OC"}
    ]},
    {"compound": "Molecule 1: siRNA, murine Hes1 mRNA nt 239-257, SEQ ID NO: 1 and 2 (chain 1 CAGCUGAUAUAAUGGAGAATT; chain 2 UUCUCCAUUAUAUCAGCUGTT; chemistry not given here)", "values": [
      {"measurement": "siRNA concentration for optimal Hes1 knockdown", "setting": "[4]", "result": "~20", "unit": "nM"}
    ]},
    {"compound": "Molecule 7: siRNA, human Hes1 mRNA nt 673-691, SEQ ID NO: 13 and 14 (chain 1 ACUGCAUGACCCAGAUCAA; chain 2 UUGAUCUGGGUCAUGCAGU; listed as RNA, chemistry not given here)", "values": [
      {"measurement": "siRNA concentration for optimal Hes1 knockdown", "setting": "[4]", "result": 2, "unit": "nM"}
    ]}
  ]
}
